The values below come from patent publication US20240228490A1, “HETEROCYCLIC DERIVATIVE INHIBITOR AND PREPARATION METHOD THEREFOR AND APPLICATION THEREOF” (Shanghai Hansoh Biomedical Co., Ltd., priority 2021, published 2024).

A short description of series [1]: Pharmacokinetic assay in Balb/C mice. To be noted: male, mouse, plasma, po, 1 mg/kg.
Description: Balb/C mice were used as test animals.
Male Balb/C mice (6 mice per example), purchased from Shanghai Jiesijie Laboratory Animal Co., LTD, with Certificate No.: SCXK (Shanghai) 2013-0006 N0.311620400001794.
5 g of hydroxyethyl cellulose (HEC, CMC-Na, viscosity: 800-1200 Cps) was weighed and dissolved in 1000 mL of purified water, followed by the addition of 10 g of Tween 80. The mixture was mixed well to obtain a clear solution.
2.05 mg of the compound was weighed and dissolved in the solution. The mixture was shaken well, crushed in a cell crusher for 1 minute, and sonicated for 15 minutes to obtain a suspension with a concentration of 0.1 mg/mL.
After an overnight fast, male Balb/C mice were administered p.o. with the test compound at a dose of 1 mg/kg and a volume of 10 mL/kg.
0.04 mL of blood was taken from the orbit of the mouse at 0, 0.5, 1, 2, 4, 6, 8 and 24 hours after the administration. The samples were stored in EDTA-K2 tubes, and centrifuged for 6 minutes at 4° C., 6000 rpm to separate the plasma. The plasma samples were stored at −80° C. The mouse was fed 4 hours after the administration.
• Liquid chromatography condition: Shimadzu LC-20AD pump • Mass spectrometry condition: AB Sciex API 4000 mass spectrometer • Chromatographic column: phenomenex Gemiu 5 μm C18 50×4.6 mm • Mobile phase: Eluent A was 0.1% formic acid in water, and Eluent B was acetonitrile • Flow rate: 0.8 mL/min • Elution time: 0-4.0 minutes, the eluent is as follows:
The main parameters of pharmacokinetics were calculated by WinNonlin 8.2.
The target in another series is PARP1 enzyme (Homo sapiens (Human), UniProt P09874). Nature of the series: Inhibitory activity on PARP1 enzyme (chemiluminescence). It counts as biochemical.
The nature of series [2]: Bidirectional permeability through Caco-2 cell model. To be noted: human. Background: Passage across Caco-2 layers is used to estimate intestinal permeability.
Description: 100 μL of transport buffer (HBSS containing 10 μM test compound, 0.5% BSA, and 0.5% DMSO) was added to the administration end of A to B • b. 300 μL of transport buffer (HBSS containing 0.5% BSA) was added to the receiving end of A to B • c. 300 μL of transport buffer (HBSS containing 10 μM test compound, 0.5% BSA, and 0.5% DMSO) was added to the administration end of B to A • d. 100 μL of transport buffer (HBSS containing 0.5% BSA) was added to the receiving end of B to A • e. Incubation for 2 hours • d. Samples were taken, processed and detected by mass spectrometry.
• Instrument: liquid chromatography; • Chromatographic column: Waters XSelect HSS T3 C18 (2.1*50 mm, 2.5 μm); • Mobile phase: phase A: water containing 0.1% formic acid; phase B: acetonitrile containing 0.1% formic acid.
• Instrument: API4000 liquid chromatography-mass spectrometer; • Ion source: electrospray ionization source (ESI); • Detection method: positive ion detection; • Scan mode: multiple reaction monitoring (MRM) mode.
The subject of series [3] is human colorectal cancer cell line DLD-1 BRCA2−/− subcutaneous xenograft tumor. Nature of the series: In vivo pharmacodynamic study in DLD-1 BRCA2−/− subcutaneous xenograft tumor model. To be noted: oral, once/day, 21 days.
Description: BALB/c nude mice, 6 to 8 weeks old, 9, purchased from the Experimental Animal Management Department of Shanghai Institute of Family Planning
The recovered cells were plated in a cell culture flask (the cell type, date, name of the experimenter and the like were labeled on the wall of the flask), and cultured in a CO2 incubator (the temperature was 37° C. and the CO2 concentration was 5% in the incubator). • b. Cells were passaged once every three days. After passage, the cells continued to be cultured in the CO2 incubator. This process was repeated until the number of cells was sufficient for the in vivo efficacy test. • c. The cultured cells were collected, and counted with an automatic cell counter. According to the counting results, the cells were resuspended with PBS to obtain a cell suspension (density: 5×10^7/mL), which was placed in an ice box for later use.
The nude mice were labeled with disposable universal ear tags for rats and mice before inoculation. • b. During the inoculation, the cell suspension was mixed well. 0.1 to 1 mL of the cell suspension was drawn with a 1 mL syringe, air bubbles were removed, and then the syringe was placed on an ice pack for later use. • c. The nude mouse was bound with the left hand. The position on the right side of the back close to the right shoulder of the nude mouse (inoculation site) was disinfected with 75% alcohol. Inoculation started after 30 seconds. • d. The test nude mice were successively inoculated (each mouse was inoculated with 0.1 mL of cell suspension).
According to the tumor growth, the tumor was measured on 10 to 18 days after the inoculation, and the tumor size was calculated.
Calculation of tumor volume: tumor volume (mm^3)=length (mm)×width (mm)×width (mm)/2 • b. The tumor-bearing mice were grouped according to their body weight and tumor size by random grouping. • c. […] Tumors were measured and the mice were weighed twice a week after the administration of test compounds began. • e. Animals were euthanized at the end of the experiment. • f. Data were processed by using softwares such as Excel.
Series [4] concerns BRCA2 Knockout DLD-1 cells. Nature of the series: Inhibition of proliferation of BRCA2 Knockout DLD-1 cells (CellTiter-Glo). It counts as cell-based. Conditions: Homo sapiens, about 144 hours incubation. The method, then:
BRCA2 Knockout DLD-1 cells were cultured using RPMI1640 culture medium containing 10% FBS to an appropriate cell density. The cells were collected, and adjusted to an appropriate cell concentration using the complete culture medium. The cell suspension was spread on a 96-well plate (90 μL per well), and placed in a 37° C., 5% CO2 incubator overnight. Compound solutions of different concentrations were formulated using DMSO and culture medium, and vehicle control was set up. The compound solutions were added to the 96-well plate (10 μL per well), and the plate was incubated in a 37° C., 5% CO2 incubator for about 144 hours. CellTiter-Glo solution was added, and the plate was shaken to mix evenly, and incubated in the dark for 10 to 30 minutes. The values were measured with a Synergy H1 or Envision microplate reader.
The inhibition rate was calculated using the luminescence signal value. The concentration and inhibition rate were fitted to a nonlinear regression curve using Graphpad Prism software to obtain the IC50 value.
A general note: In ATP-based viability assays light output follows the ATP content of the culture.

Another series deals with PAR in tumor tissue. Nature of the series: PD part of PK/PD study in MDA-MB-436 subcutaneous xenograft model: inhibition of PAR in tumor tissue (Western blot). It counts as in vivo, BALB/c nude mice. To be noted: within 24 hours after a single administration, MDA-MB-436 model. As to the method:
• a. Grouping: According to the growth of the tumor, when the tumor grew to a volume of 300-500 mm^3, tumor-bearing mice were selected according to the experimental design and randomly grouped (3 mice per each time point) to start the PK/PD test. • b. Fasting: All tumor-bearing mice were fasted (with free access to water) overnight (fasting >8 hours) before the administration. • c. Administration: Except for the blank control group, a single oral administration was carried out according to the time of the experimental design, and the administration volume was 10 mL/kg. • d. Sample collection: The mice were euthanized by CO2 asphyxiation according to the time of the experimental design, and the samples were collected. One plasma sample and three tumor tissue samples were collected from each animal.
Tumor tissue collection: After the blood collection, the tumor tissue was collected. The collected tumor tissue was divided into 3 aliquots (˜0.1 g each), placed into labeled 2 mL centrifuge tubes, and stored in a refrigerator at −80±10° C. for PK or PD test.
1 mL of tumor lysis solution was added to each tube of tumor tissue sample, followed by the addition of steel beads. […]
Protein quantification was performed by BCA protein quantification kit. […]
c. […] PAR was subjected to fluorescence imaging, and Gapdh internal control was subjected to fluorescence imaging using IRDye 800 CW channel.
(In general: Immunoblotting shows a protein as a band on a membrane.)

PARP1 enzyme, sequence (P09874 whole entry): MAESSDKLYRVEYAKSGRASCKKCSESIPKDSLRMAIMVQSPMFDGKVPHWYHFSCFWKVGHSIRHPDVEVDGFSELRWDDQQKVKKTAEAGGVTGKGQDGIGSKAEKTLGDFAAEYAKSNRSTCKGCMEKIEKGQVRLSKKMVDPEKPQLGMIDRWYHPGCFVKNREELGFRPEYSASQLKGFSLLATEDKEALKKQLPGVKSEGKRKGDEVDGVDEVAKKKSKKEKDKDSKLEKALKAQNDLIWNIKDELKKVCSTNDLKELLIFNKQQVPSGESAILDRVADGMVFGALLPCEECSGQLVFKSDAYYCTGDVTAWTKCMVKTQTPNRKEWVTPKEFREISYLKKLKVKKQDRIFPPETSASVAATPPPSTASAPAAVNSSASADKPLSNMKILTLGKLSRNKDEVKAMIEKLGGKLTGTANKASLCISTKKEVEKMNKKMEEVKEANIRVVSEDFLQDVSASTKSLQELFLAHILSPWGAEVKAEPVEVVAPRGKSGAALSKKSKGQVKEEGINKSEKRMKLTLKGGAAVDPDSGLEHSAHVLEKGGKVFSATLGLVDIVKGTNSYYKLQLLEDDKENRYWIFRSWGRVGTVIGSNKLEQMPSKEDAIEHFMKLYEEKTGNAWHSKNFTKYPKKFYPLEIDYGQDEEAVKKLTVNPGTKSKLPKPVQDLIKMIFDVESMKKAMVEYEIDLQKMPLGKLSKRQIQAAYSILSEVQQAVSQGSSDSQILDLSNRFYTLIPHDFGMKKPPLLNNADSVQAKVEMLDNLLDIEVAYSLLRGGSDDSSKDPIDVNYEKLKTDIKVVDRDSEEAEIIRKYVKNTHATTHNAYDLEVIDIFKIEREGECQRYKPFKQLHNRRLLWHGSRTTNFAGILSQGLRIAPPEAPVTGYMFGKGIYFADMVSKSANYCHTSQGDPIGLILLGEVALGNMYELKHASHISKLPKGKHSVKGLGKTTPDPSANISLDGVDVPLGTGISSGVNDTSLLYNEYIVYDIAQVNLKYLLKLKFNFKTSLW

For the molecule `CCc1cc2ncc(CN3CC=C(c4ccc(C(=O)NC)nc4)CC3)cc2[nH]c1=O` [Example 1, 1′-((7-Ethyl-6-oxo-5,6-dihydro-1,5-naphthyridin-3-yl)methyl)-N-methyl-1′,2′,3′,6′-tetrahydro-[3,4′-bipyridine]-6-carboxamide], in series [1], the AUC(0-t) (usually the area under the concentration-time curve up to a stated or last time point) stood at 119 µg·h/mL; the Cmax (as a rule, the maximum level reached in the sampled fluid or tissue) is 9930 ng/mL; the Tmax (usually the time from dosing to the highest level) was 1 h; the half-life (commonly the time in which the quantity being followed falls by half) is 6.9 h. The IC50 (usually the concentration that gives 50% inhibition) at PARP1 enzyme stood at 0.93 nM. Also, in series [2], the Papp A→B (usually how fast a substance crosses the layer from the apical side) at 2 h, 10 μM amounted to 12.8 ×10⁻⁶ cm/s and the Papp B→A (in general, the apparent permeability from the basolateral to the apical side of a cell layer) at 2 h, 10 μM came out at 19.2 ×10⁻⁶ cm/s. In addition, in series [3], the “Animal's body weight” value is “no significant decrease” and the “Tumor growth inhibition rate TGI (%)” value is listed as more than 90%. The IC50 in series [4] was 1.2 nM. In addition, in the series with PAR in tumor tissue, the “Inhibition of intratumoral PAR compared with AZD5305” value is “comparable”.
